# Assays:
# [1] = Partition coefficient of HMPAO and MRP20 (octanol/buffer, absorbance); format: physicochemical
# Description: 4. Measurement of Partition Coefficient of HMPAO and MRP20
# 20 μl of HMPAO or MRP20 solutions adjusted to 8 mM with a physiology saline solution was added to 500 μl of octanol and 500 μl of a HEPES buffer solution (pH 7.0) or Na2HPO4—NaOH buffer solution (pH 12.0). The mixture was allowed to stand still after stirring. Absorption of the octanol layer and the aqueous layer was measured, and the lipophilic properties of the two complexes were compared.
# [2] = Stability of 99mTc complex in an aqueous solution (radiochemical purity over time); format: physicochemical; details: for radiochemical purity: after purification by RP-HPLC, after 24 hours
# Description: 5. Stability of ^99mTc Complex in an Aqueous Solution
# In order to compare the stability of ^99mTc-HMPAO and ^99mTc-MRP20 in an aqueous solution, ^99mTc-HMPAO solution was diluted with 50 mM ammonia buffer solution (pH 9.4) into the final ligand concentration of 1 mM. The mixture was incubated in a water bath of 25° C. or 37° C., and radiochemical purity was determined by the above-mentioned analyzing methods after predetermined time (0.5, 2, 4, 8, or 24 hours). ^99mTc-MRP20 aqueous solution was diluted with 50 mM phosphate buffer solution (pH 8.3), and the similar operations were effected.
# For the purpose of examining the effect of free ligands on the stability, ^99mTc complex solution was purified by RP-HPLC, and the purified ^99mTc complex solution eluted in 100% acetonitrile was mixed and diluted in the ratio of 1:1 with a buffer solution, and changes over time of the radiochemical purity of the complex was examined similarly as for the complex before purification.
molecule,measurement,setting,value
"C/C(=N\O)C(C)NCC(C)(C)CNC(C)/C(C)=N/O (centres unmarked) [HMPAO, hexamethyl propyleneamine oxime, reference compound]",Absorbance transferred to the octanol layer,[1]; octanol / buffer (pH 7.0 or pH 12.0),below the detection limit
"CC(=O)C=C(C)NCCNCc1ccc[nH]1 [MRP20, N-[2-(1H-pyrrolylmethyl)]-N′-(4-penten-3-one-2)-ethane-1,2-diamine]",ratio of absorbances in the octanol layer and the water layer,[1]; pH of the buffer 7.0,2.1±0.7
same,ratio of absorbances in the octanol layer and the water layer,[1]; pH of the buffer 12.0,5.0±1.6
"C/C(=N\[O-])[C@@H](C)[N-]CC(C)(C)C[N-][C@H](C)/C(C)=N/O.[O]=[99Tc+3] [^99mTc-HMPAO, ^99mTc-hexamethyl propyleneamine oxime, reference compound]",radiochemical purity,[2]; 25° C.,59%
same,radiochemical purity remaining (decomposed to),"[2]; unpurified complex, 30 minutes after complex formation",about 40%
"^99mTc-N-[2-(1H-pyrrolylmethyl)]-N′-(4-penten-3-on-2)-ethane-1,2-diamine [^99mTc-MRP20]",radiochemical purity,[2]; 25° C.,6%
same,radiochemical purity remaining (decomposed to),"[2]; unpurified complex, 25° C., 4 hours after complex formation",about 40%
same,radiochemical purity retained,"[2]; unpurified complex, 2 hours after complex formation",about 70%

# Source: US7354567B2, “Method of encapsulating metal complex within liposomes” (Bio Med Core Incorporation, priority 2002, dated 2008)
